Some results are limits rather than exact numbers.

This assay deals with T1, human LPA1 (Homo sapiens, UniProt Q92633).
T1 construct: the full-length cDNA for human LPA1 was obtained by PCR of the reverse transcription reaction; expressed in transfected cells
T1 sequence (Q92633 whole entry): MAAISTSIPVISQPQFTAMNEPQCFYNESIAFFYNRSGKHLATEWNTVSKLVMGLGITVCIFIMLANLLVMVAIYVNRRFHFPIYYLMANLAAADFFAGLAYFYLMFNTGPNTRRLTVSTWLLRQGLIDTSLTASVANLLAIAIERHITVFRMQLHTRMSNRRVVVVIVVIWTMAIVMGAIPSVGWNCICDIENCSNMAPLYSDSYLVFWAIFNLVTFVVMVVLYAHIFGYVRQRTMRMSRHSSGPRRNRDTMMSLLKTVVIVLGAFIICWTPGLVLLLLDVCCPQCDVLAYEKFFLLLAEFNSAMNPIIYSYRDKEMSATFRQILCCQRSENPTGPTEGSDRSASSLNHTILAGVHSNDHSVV
Description: LPA1 calcium flux assay. The following applies: CHO cells expressing human LPA1, stimulated with 10 nM LPA; read-out: HLPA1 Ca Flux IC50. Format: cell-based. In a few lines: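 CHO cells stably expressing cloned human LPA1, serum-starved overnight, loaded with Calcium 4 dye 1 h at 37 °C in HBSS/20 mM Hepes with 0.3% fatty-acid-free HSA. Compounds preincubated 30 min at room temperature, then cells stimulated with 10 nM LPA; intracellular Ca2+ read by fluorescence. IC50 from titration curves.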
Background: A change in cytosolic calcium serves as a functional read-out for many receptors and channels.
For the compound `CCCC(O)c1c(C)noc1-c1ccc(-c2ccc(C3(C(=O)O)CC3)cc2)cc1` (stereo not drawn) [Compound 1-166, 1-{4′-[4-(1-Hydroxy-butyl)-3-methyl-isoxazol-5-yl]-biphenyl-4-yl}-cyclopropanecarboxylic acid], the IC50 lay in the range of 1000 to 50000 nM. For the compound `Cc1noc(-c2ccc(-c3ccc(C4(C(=O)O)CC4)cc3)cc2)c1CCC(=O)N(C)c1ccccc1` [Compound 1-82, 1-(4′-{3-Methyl-4-[2-(methyl-phenyl-carbamoyl)-ethyl]-isoxazol-5-yl}-biphenyl-4-yl)-cyclopropanecarboxylic acid], the IC50 is less than 300 nM.

`CCCCOc1cccc(Nc2c(C)noc2-c2ccc(-c3ccc(C4(C(=O)O)CC4)cc3)cc2)n1` [Compound 1-295, 1-{4′-[4-(6-Butoxy-pyridin-2-ylamino)-3-methyl-isoxazol-5-yl]-biphenyl-4-yl}-cyclopropanecarboxylic acid]: the IC50 is less than 300 nM. `Cc1noc(-c2ccc(-c3ccc(C4(C(=O)O)CC4)cc3)cc2)c1C(O)/C=C/c1ccccc1` (stereo not drawn) [Compound 1-158, 1-{4′-[4-((E)-1-Hydroxy-3-phenyl-allyl)-3-methyl-isoxazol-5-yl]-biphenyl-4-yl}-cyclopropanecarboxylic acid]: the IC50 is less than 300 nM. For `Cc1noc(-c2ccc(-c3ccc([C@H]4C[C@H]4C(=O)O)cc3)cc2)c1/C=C/CCc1ccccc1` (relative stereo) [Compound 1-129, (cis)-2-{4′-[3-Methyl-4-(4-phenyl-but-1-enyl)-isoxazol-5-yl]-biphenyl-4-yl}-cyclopropanecarboxylic acid] the value was less than 300 nM. In the case of `Cc1noc(-c2ccc(-c3ccc(C4(CC(=O)O)CC4)cc3)cc2)c1NC(C)CCc1ccccc1Cl` (stereo not drawn) [Compound 1-222, [1-(4′-{4-[3-(2-Chloro-phenyl)-1-methyl-propylamino]-3-methyl-isoxazol-5-yl}-biphenyl-4-yl)-cyclopropyl]-acetic acid] it was less than 300 nM; in that of `Cc1noc(-c2ccc(-c3ccc(C4(C(=O)O)CC4)cc3)cc2)c1C=CCCc1ccccc1` [Compound 1-31, 1-{4′-[3-Methyl-4-(4-phenyl-but-1-enyl)-isoxazol-5-yl]-biphenyl-4-yl}-cyclopropanecarboxylic acid], less than 300 nM.

Turning to `Cc1noc(-c2ccc(-c3ccccc3C3(C(=O)O)CC3)cc2)c1C(O)CCCc1ccccc1` (stereo not drawn) [Compound 1-203, 1-{4′-[4-(1-Hydroxy-4-phenyl-butyl)-3-methyl-isoxazol-5-yl]-biphenyl-2-yl}-cyclopropanecarboxylic acid], the IC50 lay in the range of 1000 to 50000 nM. `Cc1noc(-c2ccc(-c3ccc(C4(C(=O)O)CC4)cc3)cc2)c1C(=O)NCCc1ccccc1` [Compound 1-38, 1-[4′-(3-Methyl-4-phenethylcarbamoyl-isoxazol-5-yl)-biphenyl-4-yl]-cyclopropanecarboxylic acid]: the IC50 lay in the range of 1000 to 50000 nM. Turning to `Cc1noc(-c2ccc(-c3ccc(CCC(=O)O)cc3)cc2)c1NC(C)CCc1cccc(C(F)(F)F)c1` (stereo not drawn) [Compound 1-192, 3-(4′-{3-Methyl-4-[1-methyl-3-(3-trifluoromethyl-phenyl)-propylamino]-isoxazol-5-yl}-biphenyl-4-yl)-propionic acid], the IC50 was less than 300 nM. In the case of `Cc1noc(-c2ccc(-c3ccc(C4(C(=O)O)CC4)cc3)cc2)c1/C=C/[S+]([O-])Cc1ccccc1` (single isomer, unassigned) [Compound 1-263, 1-(4′-{3-Methyl-4-[(E)-2-(phenylmethanesulfinyl)-vinyl]-isoxazol-5-yl}-biphenyl-4-yl)-cyclopropanecarboxylic acid] it was 1000 to 50000 nM; in that of `Cc1noc(-c2ccc(-c3ccc(C4(C(=O)O)CC4)cc3)cc2)c1CNC(=O)OCc1ccccc1` [Compound 1-57, 1-{4′-[4-(Benzyloxycarbonylamino-methyl)-3-methyl-isoxazol-5-yl]-biphenyl-4-yl}-cyclopropanecarboxylic acid], less than 300 nM; in that of `Cc1noc(-c2ccc(-c3ccc(C4(C(=O)O)CC4)cc3)cc2)c1CCC(=O)NC1CC1` [Compound 1-39, 1-{4′-[4-(2-Cyclopropylcarbamoyl-ethyl)-3-methyl-isoxazol-5-yl]-biphenyl-4-yl}-cyclopropanecarboxylic acid], 1000 to 50000 nM. For `Cc1noc(-c2ccc(-c3ccc(C4(CC(=O)O)CC4)cc3)cc2)c1C(O)CCCc1ccccc1` (single isomer, unassigned) [Compound 1-177, (1-{4′-[4-(1-Hydroxy-4-phenyl-butyl)-3-methyl-isoxazol-5-yl]-biphenyl-4-yl}-cyclopropyl)-acetic acid] the value was less than 300 nM. Turning to `Cc1noc(-c2ccc(-c3ccc(C4(C(=O)O)CC4)cc3)cc2)c1Nc1cccc(C(N)=O)n1` [Compound 1-312, 1-{4′-[4-(6-Carbamoyl-pyridin-2-ylamino)-3-methyl-isoxazol-5-yl]-biphenyl-4-yl}-cyclopropanecarboxylic acid], the IC50 was less than 300 nM.

Turning to `Cc1noc(-c2ccc(-c3ccc(C4(C(=O)O)CC4)cc3)cc2)c1/C=C\CCc1ccccc1` [Compound 1-94, 1-{4′-[3-Methyl-4-((Z)-4-phenyl-but-1-enyl)-isoxazol-5-yl]-biphenyl-4-yl}-cyclopropanecarboxylic acid], the IC50 was less than 300 nM. For `Cc1noc(-c2ccc(-c3ccc(C4(C(=O)O)CC4)cc3)cc2)c1NC(=O)N[C@H](C)c1ccccc1` [Compound 1-11, 1-(4′-{3-Methyl-4-[3-((R)-1-phenyl-ethyl)-ureido]-isoxazol-5-yl}-biphenyl-4-yl)-cyclopropanecarboxylic acid], the concentration for half-maximal inhibition (IC50) is less than 300 nM. For the compound `Cc1noc(-c2ccc(-c3ccc(C4(C(=O)O)CC4)cc3)cc2)c1C(O)C(=O)NCCc1ccccc1` (stereo not drawn) [Compound 1-249, 1-{4′-[4-(Hydroxy-phenethylcarbamoyl-methyl)-3-methyl-isoxazol-5-yl]-biphenyl-4-yl}-cyclopropanecarboxylic acid], the IC50 was less than 300 nM. On to `Cc1noc(-c2ccc(-c3ccc(C4(C(=O)O)CC4)cc3)cc2)c1CCOCC1CC1` [Compound 1-35, 1-{4′-[4-(2-Cyclopropylmethoxy-ethyl)-3-methyl-isoxazol-5-yl]-biphenyl-4-yl}-cyclopropanecarboxylic acid], for which the IC50 is less than 300 nM. For the compound `Cc1noc(-c2ccc(-c3ccc(C4(C(=O)O)CC4)cc3)cc2)c1/C=C/CCc1ccccc1` [Compound 1-95, 1-{4′-[3-Methyl-4-((E)-4-phenyl-but-1-enyl)-isoxazol-5-yl]-biphenyl-4-yl}-cyclopropanecarboxylic acid], the IC50 fell in the range of 300 to 1000 nM. With `Cc1noc(-c2ccc(-c3ccc(CCC(=O)O)cc3)cc2)c1NC(C)CCc1cccc(C(F)(F)F)c1` (single isomer, unassigned) [Compound 1-234, 3-(4′-{3-Methyl-4-[1-methyl-3-(3-trifluoromethyl-phenyl)-propylamino]-isoxazol-5-yl}-biphenyl-4-yl)-propionic acid], the IC50 is greater than 50000 nM.

For the compound `Cc1noc(-c2ccc(-c3ccc(C(Cc4ccccc4)C(=O)O)cc3)cc2)c1CSCCc1ccccc1` (stereo not drawn) [Compound 1-145, 2-[4′-(3-Methyl-4-phenethylsulfanylmethyl-isoxazol-5-yl)-biphenyl-4-yl]-3-phenyl-propionic acid], the 50% inhibitory concentration (IC50) was less than 300 nM. For `Cc1noc(-c2ccc(-c3ccc(C4(C(=O)O)CC4)cc3)cc2)c1C=CCC(C)c1ccccc1` (stereo not drawn) [Compound 1-110, 1-{4′-[3-Methyl-4-(4-phenyl-pent-1-enyl)-isoxazol-5-yl]-biphenyl-4-yl}-cyclopropanecarboxylic acid] the value was less than 300 nM. With `Cc1noc(-c2ccc(-c3ccc(C4(C(=O)O)CC4)cc3)cc2)c1COC(C)c1ccccc1` (stereo not drawn) [Compound 1-47, 1-{4′-[3-Methyl-4-(1-phenyl-ethoxymethyl)-isoxazol-5-yl]-biphenyl-4-yl}-cyclopropanecarboxylic acid], the IC50 fell in the range of 1000 to 50000 nM. For the compound `Cc1noc(-c2ccc(-c3ccc(C4(C(=O)O)CC4)cc3)cc2)c1C(C)C(=O)NC(C)c1ccccc1` (stereo not drawn) [Compound 1-97, 1-(4′-{3-Methyl-4-[1-(1-phenyl-ethylcarbamoyl)-ethyl]-isoxazol-5-yl}-biphenyl-4-yl)-cyclopropanecarboxylic acid], the IC50 lay within 1000 to 50000 nM.

Consider `Cc1noc(-c2ccc(-c3ccc(C4(CC(=O)O)CC4)cc3)cc2)c1NC(C)CCc1ccc(Cl)cc1` (stereo not drawn) [Compound 1-218, [1-(4′-{4-[3-(4-Chloro-phenyl)-1-methyl-propylamino]-3-methyl-isoxazol-5-yl}-biphenyl-4-yl)-cyclopropyl]-acetic acid], for which the IC50 is less than 300 nM. Take `Cc1noc(-c2ccc(-c3ccc(C4(C(=O)O)CC4)cc3)cc2)c1CCC(=O)N(C)CC1CC1` [Compound 1-119, 1-(4′-{4-[2-(Cyclopropylmethyl-methyl-carbamoyl)-ethyl]-3-methyl-isoxazol-5-yl}-biphenyl-4-yl)-cyclopropanecarboxylic acid]: the IC50 was in the range of 300 to 1000 nM. In the case of `Cc1noc(-c2ccc(-c3ccc(C4(C(=O)O)CC4)cc3)cc2)c1CNCc1ccccc1` [Compound 1-29, 1-{4′-[4-(Benzylamino-methyl)-3-methyl-isoxazol-5-yl]-biphenyl-4-yl}-cyclopropanecarboxylic acid], the IC50 was in the range of 1000 to 50000 nM. In the case of `COc1cccc(Nc2c(C)noc2-c2ccc(-c3ccc(C4(C(=O)O)CC4)cc3)cc2)n1` [Compound 1-304, 1-{4′-[4-(6-Methoxy-pyridin-2-ylamino)-3-methyl-isoxazol-5-yl]-biphenyl-4-yl}-cyclopropanecarboxylic acid], the IC50 is less than 300 nM. For `Cc1noc(-c2ccc(-c3ccc(C4(C(=O)O)CC4)cc3)cc2)c1CCNC(=O)c1ccccc1` [Compound 1-36, 1-{4′-[4-(2-Benzoylamino-ethyl)-3-methyl-isoxazol-5-yl]-biphenyl-4-yl}-cyclopropanecarboxylic acid] the value was 1000 to 50000 nM.

Broadly, the IC50 is the point on the concentration scale where inhibition reaches its midpoint.

(Values after patent US9624182B2, “Compounds as lysophosphatidic acid receptor antagonists” (Amira Pharmaceuticals, Inc., priority 2009, dated 2017).)
